Experimental findings from patent US10017584B2, “6-deoxy-6-thioether-amino acid cyclodextrin derivative and preparation method thereof” (Hangzhou Adamerck Pharmlabs Inc., priority 2010, dated 2018) are described below.

Read-outs that look alike come from different tables or passages of the source.

The test system of data set [1] is muscular relaxation induced by rocuronium bromide. Put plainly: Reversal of rocuronium bromide induced muscular relaxation in anaesthetised Guinea pigs (TOF-Watch SX monitor). In kind it is in vivo, Guinea pig. From the text: After pentobarbital sodium anesthesia in the abdominal cavity, the Guinea pigs are fixed on rat boards and connected to small animal ventilators after endotracheal intubation. Stimulating electrodes of a muscular relaxation monitor, TOF-Watch SX, are respectively connected to left post-femur and post-tibialis subcutis of the Guinea pig. Self-made tools are used to fix the left tibialis on a small platform while permitting the left hind paw to be able to move freely. A sensor is fixed on a palm surface of a left hind leg of the Guinea pig and a probe of skin temperature is fixed on a palm surface of a left front leg of the Guinea pig.

In data set [2] the test system is small mice. Put plainly: Toxic reactions after intravenous tail injection in male small mice. To be noted: intravenous injection at the tail, 200 mg/ml, 4000 mg/kg.
Excerpt: (§1) Male small mice are processed with intravenous injection with compounds of the present invention at the tails.
In data set [3] the test system is small mice. Conditions: mouse, in vivo, iv, 4000 mg/kg.
Excerpt: as §1
The mark [4] stands for this setting: Guinea pig, compound 2 mg/kg given when TOFR disappears and T1 decreases more than 80%, after i.v. rocuronium bromide (twice ED90 dose).
The mark [5] stands for this setting: guinea pig, in vivo, iv, 2 mg/kg.

With “6-per-deoxy-6-per-(N-ethyl-D-cysteine)thioether-β-cyclodextrin [CD-28]”, in data set [1] (setting [4]), the “T1 recovering to 25%/time” value came out at 8.25 min, the “T1 recovering to 50%/time” value was determined as 12.25 min, the “T1 recovering to 75%/time” value came out at 15.00 min and the “TOF recovering to 50%/time” value turned out to be 12.75 min. For the same molecule, in data set [1] (setting [4]), the “TOF recovering to 75%/time” value came out at 16.25 min.
With “6-per-deoxy-6-per-(N-ethyl-D-cysteine)thioether-β-cyclodextrin sodium salt [CD-29]”, in data set [1] (setting [5]), the “T1 recovering to 25%/time” value amounted to 6.75 min, the “T1 recovering to 50%/time” value came to 8.50 min, the “T1 recovering to 75%/time” value amounted to 9.25 min and the “TOF recovering to 50%/time” value turned out to be 6.50 min. Also, the “TOF recovering to 75%/time” value in data set [1] (setting [5]) was found to be 8.25 min.
With “6-per-deoxy-6-per-(N-methyl-D-cysteine)thioether-β-cyclodextrin [CD-26]”, in data set [1] (setting [4]), the “T1 recovering to 25%/time” value amounted to 7.75 min, the “T1 recovering to 50%/time” value was 12.25 min, the “T1 recovering to 75%/time” value was 16.00 min and the “TOF recovering to 50%/time” value turned out to be 8.00 min. In addition, the “TOF recovering to 75%/time” value in data set [1] (setting [4]) is 11.75 min.
With “6-per-deoxy-6-per-(N-methyl-D-cysteine)thioether-β-cyclodextrin sodium salt [CD-27]”, in data set [1] (setting [5]), the “T1 recovering to 25%/time” value stood at 8.25 min, the “T1 recovering to 50%/time” value amounted to 11.25 min, the “T1 recovering to 75%/time” value came out at 16.00 min and the “TOF recovering to 50%/time” value is 8.25 min. Moreover, the “TOF recovering to 75%/time” value in data set [1] (setting [5]) was determined as 10.75 min.
With “6-per-deoxy-6-per-(α-L-glycine ethyl)thioether-γ-cyclodextrin [CD-16]”, in data set [1] (setting [5]), the “T1 recovering to 25%/time” value stood at 2.25 min, the “T1 recovering to 50%/time” value worked out at 3.50 min, the “T1 recovering to 75%/time” value came to 8.50 min and the “TOF recovering to 50%/time” value turned out to be 3.50 min. Further, the “TOF recovering to 75%/time” value in data set [1] (setting [5]) stood at 5.75 min.
In the case of “6-per-deoxy-6-per-(α-L-glycine methyl)sulfinyl-γ-cyclodextrin [CD-5]”, in data set [1] (setting [5]), the “T1 recovering to 25%/time” value came out at 3.50 min, the “T1 recovering to 50%/time” value was found to be 4.25 min, the “T1 recovering to 75%/time” value worked out at 8.25 min and the “TOF recovering to 50%/time” value is 4.75 min. Moreover, the “TOF recovering to 75%/time” value in data set [1] (setting [5]) came out at 7.25 min.
Take `N[C@@H](CSC[C@H]1O[C@@H]2O[C@H]3[C@H](O)[C@@H](O)[C@@H](O[C@H]4[C@H](O)[C@@H](O)[C@@H](O[C@H]5[C@H](O)[C@@H](O)[C@@H](O[C@H]6[C@H](O)[C@@H](O)[C@@H](O[C@H]7[C@H](O)[C@@H](O)[C@@H](O[C@H]8[C@H](O)[C@@H](O)[C@@H](O[C@H]9[C@H](O)[C@@H](O)[C@@H](O[C@H]1[C@H](O)[C@H]2O)O[C@@H]9CSC[C@H](N)C(=O)[O-])O[C@@H]8CSC[C@H](N)C(=O)[O-])O[C@@H]7CSC[C@H](N)C(=O)[O-])O[C@@H]6CSC[C@H](N)C(=O)[O-])O[C@@H]5CSC[C@H](N)C(=O)[O-])O[C@@H]4CSC[C@H](N)C(=O)[O-])O[C@@H]3CSC[C@H](N)C(=O)[O-])C(=O)[O-].[Na+].[Na+].[Na+].[Na+].[Na+].[Na+].[Na+].[Na+]` [CD-7, 6-per-deoxy-6-per-(α-L-glycinemethyl)thioether-γ-cyclodextrin sodium salt]: in data set [1] (setting [5]), the “T1 recovering to 25%/time” value stood at 1.25 min, the “T1 recovering to 50%/time” value came to 1.50 min, the “T1 recovering to 75%/time” value was 2.75 min and the “TOF recovering to 50%/time” value is 1.25 min. Also, in data set [1] (setting [5]), the “TOF recovering to 75%/time” value was 1.50 min. Also, the “result description (toxic reactions)” value in the data set with small mice [2] is given as “normal”.
Take `CC(=O)NC(CSC[C@H]1O[C@@H]2O[C@H]3[C@H](O)[C@@H](O)[C@@H](O[C@H]4[C@H](O)[C@@H](O)[C@@H](O[C@H]5[C@H](O)[C@@H](O)[C@@H](O[C@H]6[C@H](O)[C@@H](O)[C@@H](O[C@H]7[C@H](O)[C@@H](O)[C@@H](O[C@H]8[C@H](O)[C@@H](O)[C@@H](O[C@H]9[C@H](O)[C@@H](O)[C@@H](O[C@H]1[C@H](O)[C@H]2O)O[C@@H]9CSCC(NC(C)=O)C(=O)O)O[C@@H]8CSCC(NC(C)=O)C(=O)O)O[C@@H]7CSCC(NC(C)=O)C(=O)O)O[C@@H]6CSCC(NC(C)=O)C(=O)O)O[C@@H]5CSCC(NC(C)=O)C(=O)O)O[C@@H]4CSCC(NC(C)=O)C(=O)O)O[C@@H]3CSCC(NC(C)=O)C(=O)O)C(=O)O` (some centres unmarked) [CD-8, 6-per-deoxy-6-per-(N-acetylglycinemethyl)thioether-γ-cyclodextrin]: in data set [1] (setting [5]), the “T1 recovering to 50%/time” value stood at 2.75 min, the “T1 recovering to 75%/time” value came out at 4.25 min, the “TOF recovering to 50%/time” value was determined as 2.50 min and the “TOF recovering to 75%/time” value was found to be 3.50 min.
`CC(=O)NC(CSC[C@H]1O[C@@H]2O[C@H]3[C@H](O)[C@@H](O)[C@@H](O[C@H]4[C@H](O)[C@@H](O)[C@@H](O[C@H]5[C@H](O)[C@@H](O)[C@@H](O[C@H]6[C@H](O)[C@@H](O)[C@@H](O[C@H]7[C@H](O)[C@@H](O)[C@@H](O[C@H]8[C@H](O)[C@@H](O)[C@@H](O[C@H]9[C@H](O)[C@@H](O)[C@@H](O[C@H]1[C@H](O)[C@H]2O)O[C@@H]9CSCC(NC(C)=O)C(=O)[O-])O[C@@H]8CSCC(NC(C)=O)C(=O)[O-])O[C@@H]7CSCC(NC(C)=O)C(=O)[O-])O[C@@H]6CSCC(NC(C)=O)C(=O)[O-])O[C@@H]5CSCC(NC(C)=O)C(=O)[O-])O[C@@H]4CSCC(NC(C)=O)C(=O)[O-])O[C@@H]3CSCC(NC(C)=O)C(=O)[O-])C(=O)[O-].[Na+].[Na+].[Na+].[Na+].[Na+].[Na+].[Na+].[Na+]` (some centres unmarked) [CD-9, 6-per-deoxy-6-per-(N-acetylglycinemethyl)thioether-γ-cyclodextrin sodium salt]: in data set [1] (setting [5]), the “T1 recovering to 25%/time” value amounted to 1.25 min, the “T1 recovering to 50%/time” value worked out at 1.75 min, the “TOF recovering to 50%/time” value was determined as 1.50 min and the “TOF recovering to 75%/time” value turned out to be 3.25 min. Further, the “result description (toxic reactions)” value with small mice [2] is “normal”.
Take `N[C@@H](CCSC[C@H]1O[C@@H]2O[C@H]3[C@H](O)[C@@H](O)[C@@H](O[C@H]4[C@H](O)[C@@H](O)[C@@H](O[C@H]5[C@H](O)[C@@H](O)[C@@H](O[C@H]6[C@H](O)[C@@H](O)[C@@H](O[C@H]7[C@H](O)[C@@H](O)[C@@H](O[C@H]8[C@H](O)[C@@H](O)[C@@H](O[C@H]9[C@H](O)[C@@H](O)[C@@H](O[C@H]1[C@H](O)[C@H]2O)O[C@@H]9CSCC[C@H](N)C(=O)[O-])O[C@@H]8CSCC[C@H](N)C(=O)[O-])O[C@@H]7CSCC[C@H](N)C(=O)[O-])O[C@@H]6CSCC[C@H](N)C(=O)[O-])O[C@@H]5CSCC[C@H](N)C(=O)[O-])O[C@@H]4CSCC[C@H](N)C(=O)[O-])O[C@@H]3CSCC[C@H](N)C(=O)[O-])C(=O)[O-].[Na+].[Na+].[Na+].[Na+].[Na+].[Na+].[Na+].[Na+]` [CD-17, 6-per-deoxy-6-per-(α-L-amino acid ethyl)thioether-γ-cyclodextrin sodium salt]: in data set [1] (setting [4]), the “T1 recovering to 25%/time” value stood at 3.00 min, the “T1 recovering to 50%/time” value is 5.25 min, the “T1 recovering to 75%/time” value is 7.75 min and the “TOF recovering to 50%/time” value amounted to 3.00 min. The “TOF recovering to 75%/time” value in data set [1] (setting [4]) was 6.25 min. The “result description (toxic reactions)” value with small mice [2] is “normal”.
For the molecule `CC(C)(SC[C@H]1O[C@@H]2O[C@H]3[C@H](O)[C@@H](O)[C@@H](O[C@H]4[C@H](O)[C@@H](O)[C@@H](O[C@H]5[C@H](O)[C@@H](O)[C@@H](O[C@H]6[C@H](O)[C@@H](O)[C@@H](O[C@H]7[C@H](O)[C@@H](O)[C@@H](O[C@H]8[C@H](O)[C@@H](O)[C@@H](O[C@H]9[C@H](O)[C@@H](O)[C@@H](O[C@H]1[C@H](O)[C@H]2O)O[C@@H]9CSC(C)(C)[C@@H](N)C(=O)[O-])O[C@@H]8CSC(C)(C)[C@@H](N)C(=O)[O-])O[C@@H]7CSC(C)(C)[C@@H](N)C(=O)[O-])O[C@@H]6CSC(C)(C)[C@@H](N)C(=O)[O-])O[C@@H]5CSC(C)(C)[C@@H](N)C(=O)[O-])O[C@@H]4CSC(C)(C)[C@@H](N)C(=O)[O-])O[C@@H]3CSC(C)(C)[C@@H](N)C(=O)[O-])[C@@H](N)C(=O)[O-].[Na+].[Na+].[Na+].[Na+].[Na+].[Na+].[Na+].[Na+]` [CD-20, 6-per-deoxy-6-per-(α-D-amino acid dimethyl)sulfinyl-γ-cyclodextrin sodium salt], the “result description (toxic reactions)” value with small mice [3] is “normal”.
Turning to `N[C@H](CSC[C@H]1O[C@@H]2O[C@H]3[C@H](O)[C@@H](O)[C@@H](O[C@H]4[C@H](O)[C@@H](O)[C@@H](O[C@H]5[C@H](O)[C@@H](O)[C@@H](O[C@H]6[C@H](O)[C@@H](O)[C@@H](O[C@H]7[C@H](O)[C@@H](O)[C@@H](O[C@H]8[C@H](O)[C@@H](O)[C@@H](O[C@H]1[C@H](O)[C@H]2O)O[C@@H]8CSC[C@@H](N)C(=O)[O-])O[C@@H]7CSC[C@@H](N)C(=O)[O-])O[C@@H]6CSC[C@@H](N)C(=O)[O-])O[C@@H]5CSC[C@@H](N)C(=O)[O-])O[C@@H]4CSC[C@@H](N)C(=O)[O-])O[C@@H]3CSC[C@@H](N)C(=O)[O-])C(=O)[O-].[Na+].[Na+].[Na+].[Na+].[Na+].[Na+].[Na+]` [CD-25, 6-per-deoxy-6-per-(α-D-glycinemethyl)thioether-β-cyclodextrin sodium salt], the “result description (toxic reactions)” value in the data set on small mice [2] is reported as “normal”.
